# Test results: PubChem BioAssay (NCI)
#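 Where inhibition never reached the appropriate level, the endpoint shown equals the highest concentration tested. Otherwise, values were interpolated linearly from a five-concentration, 48-hour dose response in 96-well plates. The concentration for full growth arrest is given as TGI.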
# What was measured:
# Assay in all cases: NCI anticancer screen, dose series, 48 h
# [1] = system: NCI-H23 lung
# [2] = system: NCI/ADR-RES ovarian
# [3] = system: CAKI-1 renal
# [4] = system: K-562 leukemia
# [5] = system: SF-268 CNS
# [6] = system: SNB-19 CNS
# [7] = system: OVCAR-8 ovarian
# [8] = system: SNB-75 CNS
# [9] = system: A549 NSCLC
# [10] = system: COLO 205 colon
# [11] = system: HCT-116 colon
# [12] = system: OVCAR-4 ovarian
# [13] = system: SF-539 CNS
# [14] = system: NCI-H522 lung
# [15] = system: CCRF-CEM leukemia
# [16] = system: MDA-MB-435
# [17] = system: A498 renal
# [18] = system: NCI-H460 lung
# [19] = system: EKVX NSCLC
# [20] = system: IGROV1 ovarian
# [21] = system: PC-3 prostate
# [22] = system: SN12C renal
# [23] = system: SF-295 CNS
# [24] = system: RPMI-8226 leukemia
# [25] = system: T-47D breast
# [26] = system: SK-MEL-2 melanoma
# [27] = system: MCF7 breast
# [28] = system: MDA-N
# [29] = system: HOP-92 NSCLC
# [30] = system: MALME-3M melanoma
# [31] = system: UACC-62 melanoma
# [32] = system: RXF 393 renal
# [33] = system: M14 melanoma
# [34] = system: HL-60(TB) leukemia
# [35] = system: SR leukemia
# [36] = system: OVCAR-3 ovarian
# [37] = system: 786-0 renal
# [38] = system: ACHN renal
# [39] = system: HCT-15 colon
# [40] = system: SK-MEL-28 melanoma
# [41] = system: HCC-2998 colon
# [42] = system: MOLT-4 leukemia
# [43] = system: UACC-257 melanoma
# [44] = system: HOP-62 NSCLC
# [45] = system: MDA-MB-231 breast
# [46] = system: LOX IMVI melanoma
# [47] = system: HT29 colon
# [48] = system: OVCAR-5 ovarian
# [49] = system: UO-31 renal
# [50] = system: KM12 colon
# [51] = system: BT-549 breast
# [52] = system: DU-145 prostate
# [53] = system: SK-OV-3 ovarian
# [54] = system: U251 CNS
# [55] = system: NCI-H226 lung
# [56] = system: SK-MEL-5 melanoma
# [57] = system: TK-10 renal
# [58] = system: SW-620 colon
structure (smiles),measurement,setting,value
C=C(C)C12OC3(c4ccccc4)OC1C1C4OC4(CO)C(O)C4(O)C(=O)C(C)=CC4C1(O3)C(C)C2OC(=O)/C=C/C=C/c1ccccc1 (configuration not stated),TGI,[1],1400 nM
same,TGI,[2],1380 nM
same,TGI,[3],1520 nM
same,TGI,[4],2350 nM
same,TGI,[5],1250 nM
same,TGI,[6],5000 nM
same,TGI,[7],1150 nM
same,TGI,[8],1150 nM
same,TGI,[9],2390 nM
same,TGI,[10],41.6 nM
same,TGI,[11],887 nM
same,TGI,[12],697 nM
same,TGI,[13],1520 nM
same,TGI,[14],1100 nM
same,TGI,[15],1500 nM
same,TGI,[16],742 nM
same,TGI,[17],183 nM
same,TGI,[18],3040 nM
same,TGI,[19],1130 nM
same,TGI,[20],2400 nM
same,TGI,[21],620 nM
same,TGI,[22],370 nM
same,TGI,[23],1090 nM
same,TGI,[24],519 nM
same,TGI,[25],4840 nM
same,TGI,[26],1890 nM
same,TGI,[27],911 nM
same,TGI,[28],817 nM
same,TGI,[29],836 nM
same,TGI,[30],1240 nM
same,TGI,[31],1290 nM
same,TGI,[32],1070 nM
same,TGI,[33],409 nM
same,TGI,[34],107 nM
same,TGI,[35],385 nM
same,TGI,[36],316 nM
same,TGI,[37],699 nM
same,TGI,[38],557 nM
same,TGI,[39],1980 nM
same,TGI,[40],1550 nM
same,TGI,[41],246 nM
same,TGI,[42],2340 nM
same,TGI,[43],1940 nM
same,TGI,[44],1650 nM
same,TGI,[45],264 nM
same,TGI,[46],411 nM
same,TGI,[47],220 nM
same,TGI,[48],597 nM
same,TGI,[49],576 nM
same,TGI,[50],862 nM
same,TGI,[51],970 nM
same,TGI,[52],1470 nM
same,TGI,[53],4730 nM
same,TGI,[54],894 nM
same,TGI,[55],1060 nM
same,TGI,[56],989 nM
N#CC(C#N)N=Nc1ccc(-c2nc3ccccc3s2)cc1,TGI,[1],8720 nM
same,TGI,[2],15200 nM
same,TGI,[3],20700 nM
same,TGI,[7],43800 nM
same,TGI,[8],54800 nM
same,TGI,[10],14000 nM
same,TGI,[11],13600 nM
same,TGI,[12],78600 nM
same,TGI,[13],25800 nM
same,TGI,[14],7800 nM
same,TGI,[16],39900 nM
same,TGI,[17],23800 nM
same,TGI,[19],22800 nM
same,TGI,[20],22200 nM
same,TGI,[21],10100 nM
same,TGI,[22],10800 nM
same,TGI,[57],11300 nM
same,TGI,[24],3400 nM
same,TGI,[25],8210 nM
same,TGI,[26],16700 nM
same,TGI,[27],14900 nM
same,TGI,[28],63100 nM
same,TGI,[29],4640 nM
same,TGI,[30],7990 nM
same,TGI,[32],15800 nM
same,TGI,[33],32100 nM
same,TGI,[35],10300 nM
same,TGI,[37],22000 nM
same,TGI,[38],15200 nM
same,TGI,[39],13500 nM
same,TGI,[40],35900 nM
same,TGI,[42],3680 nM
same,TGI,[43],11200 nM
same,TGI,[46],20400 nM
same,TGI,[47],20400 nM
same,TGI,[58],22700 nM
same,TGI,[48],50500 nM
same,TGI,[49],21800 nM
same,TGI,[51],19200 nM
same,TGI,[52],19600 nM
same,TGI,[56],9370 nM
